{
  "source": "paper PMC8550792",
  "about": "“Evolution of kinase polypharmacology across HSP90 drug discovery” (Cell Chemical Biology, 2021)",
  "test_in_all_cases": "biochemical",
  "format_in_all_cases": "biochemical",
  "key": {"382 unique human kinases [1]": {"target": "T1, 382 unique human kinases (Homo sapiens, UniProt Q8IW41)", "T1 construct": "purchased Reaction Biology (HotSpot contract assay)", "T1 sequence (Q8IW41 1-473)": "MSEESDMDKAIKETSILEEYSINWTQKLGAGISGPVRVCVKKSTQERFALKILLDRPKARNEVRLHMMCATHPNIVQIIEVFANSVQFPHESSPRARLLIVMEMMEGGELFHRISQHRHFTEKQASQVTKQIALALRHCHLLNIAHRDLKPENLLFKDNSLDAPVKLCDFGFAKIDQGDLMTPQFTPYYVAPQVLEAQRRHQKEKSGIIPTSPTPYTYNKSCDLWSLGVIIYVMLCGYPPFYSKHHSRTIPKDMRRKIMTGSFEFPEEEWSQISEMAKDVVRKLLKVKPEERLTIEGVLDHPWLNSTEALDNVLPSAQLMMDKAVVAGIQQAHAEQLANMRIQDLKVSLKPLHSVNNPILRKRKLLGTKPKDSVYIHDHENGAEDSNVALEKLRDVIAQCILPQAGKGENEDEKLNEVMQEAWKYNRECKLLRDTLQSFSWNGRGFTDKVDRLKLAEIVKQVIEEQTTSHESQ", "details": "MAPKAPK5/PRAK, compound at 10 uM, duplicate values; for remaining activity at 10 µM: read-out: % Enzyme Activity (relative to DMSO controls)"}, "382 unique human kinases [2]": {"target": "T2, 382 unique human kinases (Homo sapiens, UniProt Q9UF33)", "T2 construct": "purchased Reaction Biology (HotSpot contract assay)", "T2 sequence (Q9UF33 23-1036)": "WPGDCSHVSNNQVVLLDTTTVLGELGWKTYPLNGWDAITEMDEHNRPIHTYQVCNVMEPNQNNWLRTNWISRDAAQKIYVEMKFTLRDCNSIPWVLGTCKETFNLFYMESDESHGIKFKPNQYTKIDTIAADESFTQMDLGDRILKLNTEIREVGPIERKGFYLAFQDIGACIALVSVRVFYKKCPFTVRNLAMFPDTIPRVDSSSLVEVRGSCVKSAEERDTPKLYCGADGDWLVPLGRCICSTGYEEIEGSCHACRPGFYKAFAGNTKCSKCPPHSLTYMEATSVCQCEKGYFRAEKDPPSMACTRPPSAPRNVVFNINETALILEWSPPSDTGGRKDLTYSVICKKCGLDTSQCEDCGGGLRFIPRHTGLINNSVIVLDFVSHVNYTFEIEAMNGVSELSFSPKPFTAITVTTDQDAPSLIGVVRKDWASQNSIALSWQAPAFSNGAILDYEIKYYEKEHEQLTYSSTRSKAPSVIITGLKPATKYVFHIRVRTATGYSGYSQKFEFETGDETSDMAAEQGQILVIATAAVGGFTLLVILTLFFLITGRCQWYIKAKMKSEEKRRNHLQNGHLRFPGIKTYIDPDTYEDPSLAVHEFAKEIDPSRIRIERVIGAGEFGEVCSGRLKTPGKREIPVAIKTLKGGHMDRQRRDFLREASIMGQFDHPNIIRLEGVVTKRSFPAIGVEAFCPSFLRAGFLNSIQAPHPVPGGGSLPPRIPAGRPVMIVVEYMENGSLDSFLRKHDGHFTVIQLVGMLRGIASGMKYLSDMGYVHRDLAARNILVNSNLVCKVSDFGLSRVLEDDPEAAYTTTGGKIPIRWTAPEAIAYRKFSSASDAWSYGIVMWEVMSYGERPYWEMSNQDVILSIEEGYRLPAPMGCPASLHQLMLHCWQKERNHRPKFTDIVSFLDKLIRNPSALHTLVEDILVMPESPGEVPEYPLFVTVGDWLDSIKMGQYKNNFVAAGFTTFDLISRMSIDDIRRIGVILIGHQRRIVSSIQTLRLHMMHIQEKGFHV", "details": "kinase EPHA6, compound 10 uM; for remaining activity at 10 µM: read-out: % Enzyme Activity (relative to DMSO controls)"}, "382 unique human kinases [3]": {"target": "T3, 382 unique human kinases (Homo sapiens, UniProt Q16816)", "T3 construct": "purchased Reaction Biology (HotSpot contract assay)", "details": "kinase PHKg1, compound 10 uM; for remaining activity at 10 µM: read-out: % Enzyme Activity (relative to DMSO controls)"}, "382 unique human kinases [4]": {"target": "T4, 382 unique human kinases (Homo sapiens, UniProt P10721, D816F)", "T4 construct": "purchased Reaction Biology (HotSpot contract assay)", "T4 sequence (P10721 26-976 D816F)": "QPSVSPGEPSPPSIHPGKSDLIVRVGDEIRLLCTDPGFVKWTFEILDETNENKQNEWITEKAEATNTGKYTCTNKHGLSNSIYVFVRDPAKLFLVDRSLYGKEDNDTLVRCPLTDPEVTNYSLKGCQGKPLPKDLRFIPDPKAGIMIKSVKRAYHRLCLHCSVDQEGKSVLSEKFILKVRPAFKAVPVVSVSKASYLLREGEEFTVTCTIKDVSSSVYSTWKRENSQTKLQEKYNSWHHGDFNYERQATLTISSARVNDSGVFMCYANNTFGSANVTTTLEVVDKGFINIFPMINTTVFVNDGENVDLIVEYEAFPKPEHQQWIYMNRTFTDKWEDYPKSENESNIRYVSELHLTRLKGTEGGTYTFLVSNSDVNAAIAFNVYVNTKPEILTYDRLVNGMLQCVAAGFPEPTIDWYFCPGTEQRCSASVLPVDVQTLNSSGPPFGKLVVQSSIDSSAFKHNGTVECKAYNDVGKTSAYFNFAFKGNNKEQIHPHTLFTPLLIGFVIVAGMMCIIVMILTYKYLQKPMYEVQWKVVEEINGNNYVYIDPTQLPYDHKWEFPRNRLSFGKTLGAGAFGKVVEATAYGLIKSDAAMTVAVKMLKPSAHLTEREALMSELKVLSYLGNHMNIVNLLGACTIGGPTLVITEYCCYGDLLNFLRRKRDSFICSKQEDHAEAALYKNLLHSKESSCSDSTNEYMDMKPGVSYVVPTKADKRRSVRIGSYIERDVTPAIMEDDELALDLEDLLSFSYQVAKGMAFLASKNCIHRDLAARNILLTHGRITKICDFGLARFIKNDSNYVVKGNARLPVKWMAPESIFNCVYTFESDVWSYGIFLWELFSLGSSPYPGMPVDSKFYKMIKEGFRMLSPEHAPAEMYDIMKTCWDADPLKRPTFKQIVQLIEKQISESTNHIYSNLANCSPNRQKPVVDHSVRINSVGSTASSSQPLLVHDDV", "details": "c-Kit (D816F), [ATP] 20 µM, compound 10 uM; for remaining activity at 10 µM: read-out: % Enzyme Activity (relative to DMSO controls)"}, "382 unique human kinases [5]": {"target": "T5, 382 unique human kinases (Homo sapiens, UniProt P46734)", "T5 construct": "purchased Reaction Biology (HotSpot contract assay)", "T5 sequence (P46734 1-347)": "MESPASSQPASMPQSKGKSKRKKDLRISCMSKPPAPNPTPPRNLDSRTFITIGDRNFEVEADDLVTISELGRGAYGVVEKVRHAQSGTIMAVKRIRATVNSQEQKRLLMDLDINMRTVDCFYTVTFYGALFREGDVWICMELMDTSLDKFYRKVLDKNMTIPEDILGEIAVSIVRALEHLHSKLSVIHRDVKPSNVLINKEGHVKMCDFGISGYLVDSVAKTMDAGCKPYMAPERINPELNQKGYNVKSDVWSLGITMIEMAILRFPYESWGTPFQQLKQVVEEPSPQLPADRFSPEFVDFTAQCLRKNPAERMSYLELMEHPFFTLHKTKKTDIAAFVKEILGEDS", "details": "MEK3, 10 uM; for remaining activity at 10 µM: read-out: % Enzyme Activity (relative to DMSO controls)"}},
  "data": [
    {"smiles": "CC(C)c1cc(-c2n[nH]c(=O)n2-c2ccc3c(ccn3C)c2)c(O)cc1O", "note": "[Ganetespib (STA9090)]", "values": [
      {"measurement": "remaining activity at 10 µM", "setting": "382 unique human kinases [1]", "result": 102, "unit": "%"},
      {"measurement": "remaining activity at 10 µM", "setting": "382 unique human kinases [2]", "result": 91, "unit": "%"},
      {"measurement": "remaining activity at 10 µM", "setting": "382 unique human kinases [3]", "result": 88.5, "unit": "%"}
    ]},
    {"smiles": "CC(C)c1cc(-c2n[nH]c(=O)n2-c2ccc3c(ccn3C)c2)c(O)cc1O", "note": "[Ganetespib]", "values": [
      {"measurement": "remaining activity at 10 µM", "setting": "382 unique human kinases [4]", "result": 31, "unit": "%"},
      {"measurement": "remaining activity at 10 µM", "setting": "382 unique human kinases [5]", "result": 103, "unit": "%"}
    ]},
    {"smiles": "CCNC(=O)c1noc(-c2cc(C(C)C)c(O)cc2O)c1-c1ccc(CN2CCOCC2)cc1", "note": "[Luminespib]", "values": [
      {"measurement": "% Enzyme Activity (relative to DMSO controls)", "setting": "382 unique human kinases [4]", "result": 70.41, "unit": "%"},
      {"measurement": "remaining activity at 10 µM", "setting": "382 unique human kinases [4]", "result": 70.9, "unit": "%"},
      {"measurement": "% Enzyme Activity (relative to DMSO controls)", "setting": "382 unique human kinases [5]", "result": 95.40, "unit": "%"},
      {"measurement": "remaining activity at 10 µM", "setting": "382 unique human kinases [5]", "result": 96.8, "unit": "%"}
    ]},
    {"smiles": "CCNC(=O)c1noc(-c2cc(C(C)C)c(O)cc2O)c1-c1ccc(CN2CCOCC2)cc1", "note": "[Luminespib (AUY-922)]", "values": [
      {"measurement": "% Enzyme Activity (relative to DMSO controls)", "setting": "382 unique human kinases [1]", "result": 101.76, "unit": "%"},
      {"measurement": "remaining activity at 10 µM", "setting": "382 unique human kinases [1]", "result": 104, "unit": "%"},
      {"measurement": "% Enzyme Activity (relative to DMSO controls)", "setting": "382 unique human kinases [2]", "result": 91.89, "unit": "%"},
      {"measurement": "remaining activity at 10 µM", "setting": "382 unique human kinases [2]", "result": 92, "unit": "%"},
      {"measurement": "% Enzyme Activity (relative to DMSO controls)", "setting": "382 unique human kinases [3]", "result": 96.94, "unit": "%"},
      {"measurement": "remaining activity at 10 µM", "setting": "382 unique human kinases [3]", "result": 98.2, "unit": "%"}
    ]}
  ]
}
